From publication PMC9994260, “Cryo-EM structure of the RADAR supramolecular anti-phage defense complex” (Cell, 2023)
Several values for one entry are separate records, joined by “and”; a condition that tells them apart may be missing. Equal values may be shown once.

Legend:
[1] = target: T1, E. coli RdrA (EcRdrA) (Escherichia coli, UniProt A0AAN0NNX5); assay: malachite green phosphate release (NTPase); assay type: biochemical; settings: 1 mM NTP, 5 μM RdrA, 2 h, pH 7.5, 10 mM MgCl2, 50 mM KCl, 1 mM TCEP
T1 construct: full-length, N-terminal 6xHis-SUMO2 tag removed by SENP2, expressed in E. coli BL21-RIL; heptamer, active site between neighbouring subunits; Walker A G81, K82, T83, Walker B D221, D222
T1 sequence (A0AAN0NNX5 1-947): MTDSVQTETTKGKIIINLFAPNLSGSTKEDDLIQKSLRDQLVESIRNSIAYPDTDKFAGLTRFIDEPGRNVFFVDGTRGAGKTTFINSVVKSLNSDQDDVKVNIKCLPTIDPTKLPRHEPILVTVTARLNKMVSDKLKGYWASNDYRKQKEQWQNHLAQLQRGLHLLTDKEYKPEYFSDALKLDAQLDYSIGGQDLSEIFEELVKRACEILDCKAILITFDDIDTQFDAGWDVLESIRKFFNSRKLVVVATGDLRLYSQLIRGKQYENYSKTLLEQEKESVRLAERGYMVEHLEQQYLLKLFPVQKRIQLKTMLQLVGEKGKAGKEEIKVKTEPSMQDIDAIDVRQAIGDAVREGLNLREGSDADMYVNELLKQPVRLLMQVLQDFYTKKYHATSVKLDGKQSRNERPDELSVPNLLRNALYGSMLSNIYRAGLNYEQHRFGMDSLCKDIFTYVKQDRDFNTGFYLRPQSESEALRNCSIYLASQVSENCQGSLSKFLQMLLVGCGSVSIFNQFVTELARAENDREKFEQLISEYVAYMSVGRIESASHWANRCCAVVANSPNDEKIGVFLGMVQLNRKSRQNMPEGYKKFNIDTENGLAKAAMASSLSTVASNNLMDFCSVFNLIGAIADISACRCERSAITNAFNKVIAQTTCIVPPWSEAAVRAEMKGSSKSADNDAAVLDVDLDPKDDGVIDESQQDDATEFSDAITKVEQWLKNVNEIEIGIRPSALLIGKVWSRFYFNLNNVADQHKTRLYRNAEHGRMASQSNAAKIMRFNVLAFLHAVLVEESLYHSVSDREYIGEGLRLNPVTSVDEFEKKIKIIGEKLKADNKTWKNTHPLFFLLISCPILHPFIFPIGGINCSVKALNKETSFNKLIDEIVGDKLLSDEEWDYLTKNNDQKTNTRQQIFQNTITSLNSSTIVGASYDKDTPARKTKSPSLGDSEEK

[2] = target: T2, E. coli RdrB (EcRdrB) (Escherichia coli, UniProt A0AAN0NNX4); assay: HPLC deamination assay (ATP to ITP) after phosphatase treatment; assay type: biochemical; settings: 1 mM substrate, 1 μM RdrB, 30 min, 37 °C, pH 7.5, 10 mM MgCl2, 100 μM ZnSO4, 50 mM KCl, 1 mM TCEP
T2 construct: full-length, ~90 kDa, N-terminal 6xHis-SUMO2 tag removed by SENP2, expressed in E. coli BL21-RIL; dodecamer; Zn site H152, H154, H498, H530, catalytic E501
T2 sequence (A0AAN0NNX4 1-799): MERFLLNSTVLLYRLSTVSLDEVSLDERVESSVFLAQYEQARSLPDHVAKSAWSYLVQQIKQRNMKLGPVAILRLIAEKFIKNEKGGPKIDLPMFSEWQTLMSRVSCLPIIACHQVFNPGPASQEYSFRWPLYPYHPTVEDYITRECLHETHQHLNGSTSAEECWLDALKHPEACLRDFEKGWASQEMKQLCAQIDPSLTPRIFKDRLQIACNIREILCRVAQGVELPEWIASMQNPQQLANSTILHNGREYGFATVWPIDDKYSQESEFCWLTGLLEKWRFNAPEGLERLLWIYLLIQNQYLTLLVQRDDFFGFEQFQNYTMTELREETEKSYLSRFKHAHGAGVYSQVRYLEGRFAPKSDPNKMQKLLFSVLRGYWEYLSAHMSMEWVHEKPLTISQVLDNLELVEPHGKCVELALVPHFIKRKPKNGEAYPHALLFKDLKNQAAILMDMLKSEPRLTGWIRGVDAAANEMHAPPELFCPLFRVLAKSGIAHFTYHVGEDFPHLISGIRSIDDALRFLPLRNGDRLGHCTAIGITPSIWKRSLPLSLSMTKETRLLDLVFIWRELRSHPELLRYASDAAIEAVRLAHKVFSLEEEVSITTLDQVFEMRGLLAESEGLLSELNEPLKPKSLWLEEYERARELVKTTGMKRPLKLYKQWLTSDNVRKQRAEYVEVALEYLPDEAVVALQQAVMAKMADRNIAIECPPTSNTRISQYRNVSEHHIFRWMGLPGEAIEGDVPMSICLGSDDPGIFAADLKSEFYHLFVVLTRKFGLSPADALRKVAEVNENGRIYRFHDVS

[3] = target: T2, E. coli RdrB (EcRdrB); assay: HPLC deamination assay (dATP to dITP) after phosphatase treatment; assay type: biochemical; settings: 1 mM substrate, 1 μM RdrB, 30 min, 37 °C, pH 7.5, 10 mM MgCl2, 100 μM ZnSO4, 50 mM KCl, 1 mM TCEP
[4] = target: E. coli RdrA (RADAR system of E. coli P0304799.3) (E. coli P0304799.3); assay: cryo-EM structure; purified E. coli RdrA alone, 2.40 mg/mL, vitrified at 4°C; Titan Krios 300 kV
[5] = target: E. coli RdrB (RADAR system of E. coli P0304799.3) (E. coli P0304799.3); assay: cryo-EM structure; purified E. coli RdrB alone, 2.35 mg/mL, vitrified at 4°C; Titan Krios 300 kV
[6] = target: S. suis RdrA (RADAR system of Streptococcus suis SS993) (Streptococcus suis SS993); assay: cryo-EM structure; purified S. suis RdrA alone; Talos Arctica 200 kV; single heptameric rings and double stacked rings picked

Nc1ncnc2c1ncn2[C@@H]1O[C@H](COP(=O)(O)OP(=O)(O)OP(=O)(O)O)[C@@H](O)[C@H]1O [ATP]
malachite green phosphate release (NTPase) [1]: RdrA is an active ATPase in vitro that preferentially hydrolyzes ATP
HPLC deamination assay (ATP to ITP) after phosphatase treatment [2]: E. coli RdrB robustly deaminates both ATP and dATP substrates with equal efficiency

O=c1[nH]cnc2c1ncn2[C@@H]1O[C@H](COP(=O)(O)OP(=O)(O)OP(=O)(O)O)[C@@H](O)[C@H]1O [ITP]
malachite green phosphate release (NTPase) ([1]; weak substrate): Compared with ATP, RdrA only weakly hydrolyzes ITP and GTP

Nc1ncnc2c1ncn2[C@H]1C[C@H](O)[C@@H](COP(=O)(O)OP(=O)(O)OP(=O)(O)O)O1 [dATP]
HPLC deamination assay (dATP to dITP) after phosphatase treatment [3]: E. coli RdrB robustly deaminates both ATP and dATP substrates with equal efficiency

E. coli RdrA (RADAR system of E. coli P0304799.3) (enzyme)
stoichiometry N [4]: 7

E. coli RdrB (RADAR system of E. coli P0304799.3) (enzyme)
stoichiometry N [5]: 12

S. suis RdrA (RADAR system of Streptococcus suis SS993) (enzyme)
stoichiometry N [6]: 7 and 14
